Results: US7345070B2, “Peroxisome proliferator activated receptor agonists” (Eli Lilly and Company, priority 2000, dated 2008)

How the values were obtained:
huPPARγ = target: T1, huPPARγ (Homo sapiens, UniProt P37231); assay: Cotransfection assay in CV-1 cells, huPPARγ; format: cell-based; set-up: Appropriate PPARs and RXRα were constitutively expressed using plasmids containing the CMV promoter; expressed in transfected cells; host or cells: CV-1 cells; details: AOX PPRE luciferase reporter, relative to PPARγ agonist reference molecule, read-out: huPPARγ CTF Efficacy
T1 sequence (P37231 1-505): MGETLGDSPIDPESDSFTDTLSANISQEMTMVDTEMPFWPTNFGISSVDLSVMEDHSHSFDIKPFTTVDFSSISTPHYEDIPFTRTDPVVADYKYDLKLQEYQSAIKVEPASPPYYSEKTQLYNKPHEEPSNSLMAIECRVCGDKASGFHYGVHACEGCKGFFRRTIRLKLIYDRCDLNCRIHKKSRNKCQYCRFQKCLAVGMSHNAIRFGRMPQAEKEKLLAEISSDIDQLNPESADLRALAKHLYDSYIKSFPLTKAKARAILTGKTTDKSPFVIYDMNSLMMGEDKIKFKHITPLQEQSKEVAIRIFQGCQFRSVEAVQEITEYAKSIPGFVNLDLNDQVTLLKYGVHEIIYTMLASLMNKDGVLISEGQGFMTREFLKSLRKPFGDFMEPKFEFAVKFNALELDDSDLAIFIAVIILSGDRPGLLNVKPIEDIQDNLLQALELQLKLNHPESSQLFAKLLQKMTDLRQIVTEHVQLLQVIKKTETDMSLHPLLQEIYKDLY
T1 sequence (P19793 1-462 partner): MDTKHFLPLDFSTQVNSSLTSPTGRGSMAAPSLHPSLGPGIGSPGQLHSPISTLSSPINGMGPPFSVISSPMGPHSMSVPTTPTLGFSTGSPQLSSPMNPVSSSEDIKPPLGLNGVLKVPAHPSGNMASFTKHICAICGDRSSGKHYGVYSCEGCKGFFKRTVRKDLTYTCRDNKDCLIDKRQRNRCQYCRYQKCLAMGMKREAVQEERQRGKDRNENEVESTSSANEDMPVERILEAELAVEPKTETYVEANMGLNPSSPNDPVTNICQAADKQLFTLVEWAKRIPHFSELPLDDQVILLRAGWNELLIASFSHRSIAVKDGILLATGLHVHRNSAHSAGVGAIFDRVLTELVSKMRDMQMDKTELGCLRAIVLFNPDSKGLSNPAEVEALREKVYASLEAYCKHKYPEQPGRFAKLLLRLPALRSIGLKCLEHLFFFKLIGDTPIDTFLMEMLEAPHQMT
Method: (§1) DNA-dependent binding (ABCD binding) was carried out using SPA technology with PPAR receptors. Tritium-labeled PPARα and PPARγ agonists were used as radioligands for generating displacement curves and IC50 values with compounds of the invention. Cotransfection assays were carried out in CV-1 cells. The reporter plasmid contained an acylCoA oxidase (AOX) PPRE and TK promoter upstream of the luciferase reporter cDNA. Appropriate PPARs and RXRα were constitutively expressed using plasmids containing the CMV promoter. […] In order to eliminate such interference, a GAL4 chimeric system was used in which the DNA binding domain of the transfected PPAR was replaced by that of GAL4, and the GAL4 response element was utilized in place of the AOX PPRE. Cotransfection efficacy was determined relative to PPARα agonist and PPARγ agonist reference molecules. Efficacies were determined by computer fit to a concentration-response curve, or in some cases at a single high concentration of agonist (10 μM). For binding or cotransfection studies with receptors other than PPARs, similar assays were carried out using appropriate ligands, receptors, reporter constructs, etc., for that particular receptor.
(§2) These studies were carried out to evaluate the ability of compounds of the invention to bind to and/or activate various nuclear transcription factors, particularly huPPARα (“hu” indicates “human”) and huPPARγ. These studies provide in vitro data concerning efficacy and selectivity of compounds of the invention. Furthermore, binding and cotransfection data for compounds of the invention were compared with corresponding data for marketed compounds that act on either huPPARα or huPPARγ.

huPPARα = target: T2, huPPARα (Homo sapiens, UniProt Q07869); assay: DNA-dependent binding (ABCD binding) using SPA technology, huPPARα; details: SPA displacement of tritium-labeled PPARα agonist radioligand
T2 sequence (Q07869 1-468): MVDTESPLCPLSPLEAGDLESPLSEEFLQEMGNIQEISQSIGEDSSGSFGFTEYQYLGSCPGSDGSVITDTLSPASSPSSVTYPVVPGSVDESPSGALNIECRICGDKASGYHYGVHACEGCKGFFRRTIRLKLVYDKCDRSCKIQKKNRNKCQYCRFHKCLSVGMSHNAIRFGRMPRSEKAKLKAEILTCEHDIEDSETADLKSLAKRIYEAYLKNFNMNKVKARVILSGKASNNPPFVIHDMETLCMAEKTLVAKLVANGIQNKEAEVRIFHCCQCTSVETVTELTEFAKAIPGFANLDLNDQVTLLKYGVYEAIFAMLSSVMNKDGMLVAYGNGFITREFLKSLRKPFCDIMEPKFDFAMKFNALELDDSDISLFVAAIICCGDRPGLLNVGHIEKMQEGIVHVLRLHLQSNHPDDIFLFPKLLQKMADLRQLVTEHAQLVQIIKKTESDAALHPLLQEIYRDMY
T2 sequence (P19793 1-462 partner): T1 sequence (P19793 1-462 partner)
Method: as §1, §2

Structure (SMILES)	Emax (huPPARγ)	IC50 (huPPARα)
Cc1oc(C2CCCCC2)nc1CCOc1ccc(CC(C)(Oc2cccc(F)c2)C(=O)O)cc1 (stereo not shown) [Example 23, 2-(3-Fluoro-phenoxy)-2-methyl-3-{4-[2-(5-methyl-2-cyclohexyl-oxazol-4-yl)-ethoxy]-phenyl}-propionic acid]	17%	0.063 µM
Cc1oc(-c2ccccc2)nc1CCOc1ccc(CC(C)(Oc2ccc(Cl)cc2)C(=O)O)cc1 (stereo not shown) [Example 29, 2-(4-Chloro-phenoxy)-2-methyl-3-{4-[2-(5-methyl-2-phenyl-oxazol-4-yl)-ethoxy]-phenyl}-propionic acid]	82%	0.116 µM
COc1ccc(OC(C)(Cc2ccc(OCCc3nc(-c4cccs4)oc3C)cc2)C(=O)O)cc1 (stereo not shown) [Example 19, 2-Methyl-3-{4-[2-(5-methyl-2-thiophen-2-yl-oxazol-4-yl)-ethoxy]-phenyl}-2-(4-methoxyphenoxy)-propionic acid]	23%	0.085 µM
Cc1oc(CCc2ccccc2)nc1CCOc1ccc(C[C@](C)(Oc2ccccc2)C(=O)O)cc1 [Example 86, (S)-2-Methyl-3-{4-[2-(5-methyl-2-phenethyl-oxazol-4-yl)-ethoxy]-phenyl}-2-phenoxy-propionic acid]	7%	0.055 µM
Cc1oc(C2CCCCC2)nc1CCOc1ccc(CC(C)(Oc2ccc(OC(F)(F)F)cc2)C(=O)O)cc1 (stereo not shown) [Example 44, 3-{4-[2-(2-Cyclohexyl-5-methyl-oxazol-4-yl)-ethoxy]-phenyl}-2-methyl-2-(4-trifluoromethoxy-phenoxy)-propionic acid]	73%	0.157 µM
Cc1oc(-c2cccs2)nc1CCOc1ccc(CC(C)(Oc2cccc(C(C)(C)C)c2)C(=O)O)cc1 (stereo not shown) [Example 25, 2-(3-tert-Butyl-phenoxy)-2-methyl-3-{4-[2-(5-methyl-2-thiophen-2-yl-oxazol-4-yl)-ethoxy]-phenyl}-propionic acid]	106%	0.073 µM
Cc1ccc(OC(C)(Cc2ccc(OCCc3nc(C4CCCCC4)oc3C)cc2)C(=O)O)cc1 (stereo not shown) [Example 41, 3-{4-[2-(2-Cyclohexyl-5-methyl-oxazol-4-yl)-ethoxy]-phenyl}-2-methyl-2-p-tolyloxy-propionic acid]	11%	0.066 µM
Cc1oc(-c2cccs2)nc1CCOc1ccc(CC(C)(Oc2ccc(C(F)(F)F)cc2)C(=O)O)cc1 (stereo not shown) [Example 51, 2-Methyl-3-{4-[2-(5-methyl-2-thiophen-2-yl-oxazol-4-yl)-ethoxy]-phenyl}-2-(4-trifluoromethyl-phenoxy)-propionic acid]	48%	0.064 µM
Cc1oc(-c2cccs2)nc1CCOc1ccc(CC(C)(Oc2ccc(C(C)(C)C)cc2)C(=O)O)cc1 (stereo not shown) [Example 17, 2-Methyl-3-{4-[2-(5-methyl-2-thiophen-2-yl-oxazol-4-yl)-ethoxy]-phenyl}-2-(4-tert-butylphenoxy)-propionic acid]	105%	0.068 µM
Cc1oc(C2CCCCC2)nc1CCOc1ccc(CC(C)(Oc2ccc(C(C)(C)C)cc2)C(=O)O)cc1 (stereo not shown) [Example 18, 2-Methyl-3-(4-{2-[5-methyl-2-cyclohexylyl-oxazol-4-yl]-ethoxy}-phenyl)-2-(4-tert-butylphenoxy)-propionic acid]	112%	0.072 µM
Cc1oc(C2(C)CCCCC2)nc1CCOc1ccc(C[C@](C)(Oc2ccc(F)cc2)C(=O)O)cc1 [Example 67, (S)-2-(4-Fluoro-phenoxy)-2-methyl-3-(4-{2-[5-methyl-2-(1-methyl-cyclohexyl)-oxazol-4-yl]-ethoxy}-phenyl)-propionic acid]	11%	0.061 µM
Cc1oc(C2CCCCC2)nc1CCOc1ccc(CC(C)(Oc2ccc(C(F)(F)F)cc2)C(=O)O)cc1 (stereo not shown) [Example 52, 3-{4-[2-(2-Cyclohexyl-5-methyl-oxazol-4-yl)-ethoxy]-phenyl}-2-methyl-2-(4-trifluoromethyl-phenoxy)-propionic acid]	61%	0.062 µM
Cc1oc(-c2cccc(Br)c2)nc1CCOc1ccc(CC(C)(Oc2ccccc2)C(=O)O)cc1 (stereo not shown) [Example 8, 3-(4-{2-[2-(3-Bromophenyl)-5-methyloxazol-4-yl]ethoxy}phenyl)-2-methyl-2-phenoxypropionic acid]	75%	0.063 µM
Cc1ccc(OC(C)(Cc2ccc(OCCc3nc(C4CCCCC4)oc3C)cc2)C(=O)O)cc1C (stereo not shown) [Example 35, 3-{4-[2-(2-Cyclohexyl-5-methyl-oxazol-4-yl)-ethoxy]-phenyl}-2-(3,4-dimethyl-phenoxy)-2-methyl-propionic acid]	21%	0.066 µM
Cc1oc(-c2cccs2)nc1CCOc1ccc(CC(C)(Oc2cccc(C(F)(F)F)c2)C(=O)O)cc1 (stereo not shown) [Example 71, 2-Methyl-3-{4-[2-(5-methyl-2-thiophen-2-yl-oxazol-4-yl)-ethoxy]-phenyl}-2-(3-trifluoromethyl-phenoxy)-propionic acid]	50%	0.078 µM
Cc1oc(-c2cccs2)nc1CCOc1ccc(CC(C)(Oc2cccc(F)c2)C(=O)O)cc1 (stereo not shown) [Example 22, 2-(3-Fluoro-phenoxy)-2-methyl-3-{4-[2-(5-methyl-2-thiophen-2-yl-oxazol-4-yl)-ethoxy]-phenyl}-propionic acid]	12%	0.07 µM
COc1cccc(OC(C)(Cc2ccc(OCCc3nc(C4CCCCC4)oc3C)cc2)C(=O)O)c1 (stereo not shown) [Example 76, 3-{4-[2-(2-Cyclohexyl-5-methyl-oxazol-4-yl)-ethoxy]-phenyl}-2-(3-methoxy-phenoxy)-2-methyl-propionic acid]	24%	0.076 µM
Cc1oc(C2CCCCC2)nc1CCOc1ccc(CC(C)(Oc2ccc(C3CCCCC3)cc2)C(=O)O)cc1 (stereo not shown) [Example 34, 3-{4-[2-(2-Cyclohexyl-5-methyl-oxazol-4-yl)-ethoxy]-phenyl}-2-(4-cyclohexyl-phenoxy)-2-methyl-propionic acid]	76%	0.091 µM
Cc1ccc(OC(C)(Cc2ccc(OCCc3nc(-c4cccs4)oc3C)cc2)C(=O)O)cc1C (stereo not shown) [Example 36, 2-(3,4-Dimethyl-phenoxy)-2-methyl-3-{4-[2-(5-methyl-2-thiophen-2-yl-oxazol-4-yl)-ethoxy]-phenyl}-propionic acid]	21%	0.072 µM
Cc1cccc(OC(C)(Cc2ccc(OCCc3nc(-c4cccs4)oc3C)cc2)C(=O)O)c1 (stereo not shown) [Example 61, 2-Methyl-3-{4-[2-(5-methyl-2-thiophen-2-yl-oxazol-4-yl)-ethoxy]-phenyl}-2-m-tolyloxy-propionic acid]	12%	0.064 µM
